From US10617660B2, “Compositions containing benzoate compound and tannic acid for treating central nervous system disorders” (SyneuRx International (Taiwan) Corp., priority 2016, dated 2020)
Entries after “also recorded” stand apart in the source; their conditions may differ.

Tests used:
MK801-treated mice [1] = assay: Open field test of spontaneous locomotor activity (MK801-induced hyper-locomotion); type: in vivo; details: for effect on MK801-induced hyperactivity (total distance traveled in open field test): oral gavage, cohort 1, FIG. 2
Experimental: (§1) C57BL/6J male mice were group housed (3-5 mice per cage) with food and water available ad libitum in polysulfone ventilated cages (Alternative Design, AR, USA) in the animal rooms. The colony was maintained on a 12/12-h light/dark cycle at the temperature of 22±2° C. and all behavioral studies will be performed during the dark cycle. All animals used in this study were adult mice (at least 2.5 months of age).
The mice were randomly assigned into six groups listed below:
Group 3: Sodium benzoate (1000 mg/kg)+MK801
Group 4: Sodium benzoate (200 mg/kg)+MK801 […]
Group 6: Sodium benzoate (200 mg/kg)+Tannic Acid (60 mg/kg)+MK801.
Each mouse in Groups 2-6 received an acute administration of MK801 dissolved in normal saline (0.1 mg/kg, i.p.) 20 minutes prior to the behavioral tests. […]
(§2) All mice of cohort 1 in this study were assessed with open field test as described herein. The mice of cohorts 2 and 3 in this study were assessed with prepulse inhibition test as described herein.
The open field test is a common measurement of novelty induced exploratory behavior and general activity in both mice and rats. In this study, mice were placed in a Plexiglas cage (37.5 cm×21.5 cm×18 cm) under 50-65 lux light intensity. Their spontaneous locomotor activities were measured for 60 minutes using the EthoVision video tracking system (Noldus Information Technology, the Netherlands). The travel distance of each mouse was measured as an index of locomotion activity. It generates hyperactivity which is frequently applied as animal models including, but not limited to, schizophrenia, bipolar disorder, attention-deficit hyperactivity disorder, obsessive compulsive disorder, Tourette's syndrome, autism spectrum disorders, Fragile X syndrome, Parkinson's disease, dementia with Lewy bodies, and senile dementia (see Rubia et al., 2010; Sheppard and Bradshaw, 1999; Bent et al., 2014; Powell and Miyakawa, 2006; Nestler and Hyman, 2010; Bubeni{acute over ( )}kova{acute over ( )}-Vales{hacek over ( )}ova et al., 2008; Gobira et al., 2013; Lai et al., 2014; Maio et al., 2014; Sontag et al., 2010; Ding et al., 2014; Walitza et al., 2007; Finestone et al., 1982; Golimstok et al., 2011).

MK801-treated mice [2] = assay: Prepulse inhibition test of sensorimotor gating function (MK801-disrupted PPI); type: in vivo
Experimental: as §1
The mice were randomly assigned into ten groups listed below:
Group 9: Sodium benzoate (1000 mg/kg)+MK801
Group 10: Sodium benzoate (200 mg/kg)+MK801
Group 11: Sodium benzoate (600 mg/kg)+MK801
Group 12: Sodium benzoate (200 mg/kg)+Tannic Acid (30 mg/kg)+MK801
Group 13: Sodium benzoate (200 mg/kg)+Tannic Acid (60 mg/kg)+MK801
Group 14: Sodium benzoate (600 mg/kg)+Tannic Acid (10 mg/kg)+MK801
Group 15: Sodium benzoate (600 mg/kg)+Tannic Acid (30 mg/kg)+MK801
Group 16: Sodium benzoate (600 mg/kg)+Tannic Acid (60 mg/kg)+MK801.
Each mouse in Groups 8-16 received an acute administration of MK801 dissolved in normal saline (0.1 mg/kg, i.p.) 20 minutes prior to the behavioral tests. Each mouse in Groups 9-16 received an acute administration of sodium benzoate or sodium benzoate in combination with tannic acid (dissolved in PBS, 10, 30 or 60 mg/kg) via oral gavage 20 minutes prior to the MK801 administration.
The mice were randomly assigned into five groups listed below:
Group 19: Tannic acid_10 mg/kg+MK801
Group 20: Tannic acid_30 mg/kg+MK801
Each mouse in Groups 18-21 received an acute administration of MK-801 (a NMDA receptor antagonist, dissolved in normal saline (0.1 mg/kg, i.p.) 20 minutes prior to behavioral tests. On the other hand, each mouse in Groups 19-21 received an acute administration of tannic acid (dissolved in 30% PEG400 in PBS, 10, 30 or 100 mg/kg) via oral gavage 20 minutes prior to the MK801 administration.
as §2
Prepulse inhibition was used as an index of sensorimotor gating function using SR-LAB startle apparatus (San Diego Instruments, San Diego, Calif., USA). The startle stimulus was a 40 ms, 120 dB white noise burst. In the pre-pulse (pp)+pulse trials, a 20 ms white noise pre-pulse stimuli of 82 dB (pp10) or 90 dB (pp18) was presented 100 ms before a 40 ms 120 dB pulse. The trials were presented pseudo-randomly and separated by inter-trial interval of 15 s on average (varying between 10 to 20 s) under 72 dB background noise. The percentage of pre-pulse inhibition was evaluated by the following formula: % PPI=100×[(PA score)−(pp-P score)]/(PA score), where the PA score was the average of the PA value in the middle blocks.

[3] = MK801 0.1 mg/kg i.p., 20 minutes prior to test, model-inducing agent

C[C@]12N[C@H](Cc3ccccc31)c1ccccc12 [MK801]
effect on locomotion (total distance traveled in open field test) (MK801-treated mice [1]; [3]): induced hyperactivity | effect on prepulse inhibition (MK801-treated mice [2]; [3]): impairs prepulse inhibition

O=C(OC[C@H]1O[C@@H](OC(=O)c2cc(O)c(O)c(OC(=O)c3cc(O)c(O)c(O)c3)c2)[C@H](OC(=O)c2cc(O)c(O)c(OC(=O)c3cc(O)c(O)c(O)c3)c2)[C@@H](OC(=O)c2cc(O)c(O)c(OC(=O)c3cc(O)c(O)c(O)c3)c2)[C@@H]1OC(=O)c1cc(O)c(O)c(OC(=O)c2cc(O)c(O)c(O)c2)c1)c1cc(O)c(O)c(OC(=O)c2cc(O)c(O)c(O)c2)c1 [tannic acid]
effect on rescuing MK801-induced hyper-locomotion (MK801-treated mice [1]; tannic acid alone, dose not given): little or no effect | effect on MK801-disrupted PPI (MK801-treated mice [2]; tannic acid alone 10, 30, 100 mg/kg, oral gavage, MK801 0.1 mg/kg i.p., cohort 3, prepulse 82 dB and 90 dB, FIG. 4): little or no effects; also recorded: little or no improvement; also recorded: little or no impact

O=C([O-])c1ccccc1.[Na+] [sodium benzoate]
effect on MK801-induced hyperactivity (total distance traveled in open field test) (MK801-treated mice [1]; sodium benzoate 200 mg/kg alone, MK801 0.1 mg/kg i.p.): less effective | effect on MK801-induced hyperactivity (total distance traveled in open field test) (MK801-treated mice [1]; sodium benzoate 1000 mg/kg alone, MK801 0.1 mg/kg i.p.): rescued/protected mice from MK801 induced hyper-locomotion more than 200 mg/kg; also recorded: completely prevented | effect on rescuing MK801-disrupted PPI (MK801-treated mice [2]; sodium benzoate alone 200 mg/kg or 600 mg/kg, oral gavage, cohort 2, prepulse 82 dB and 90 dB): did not show much effects | effect on MK801-impaired prepulse inhibition (percentage of pre-pulse inhibition) (MK801-treated mice [2]; sodium benzoate alone at 200, 600 or 1000 mg/kg, FIG. 3 legend): can be improved
